According to PubChem BioAssay (NCI):
Several values for one entry are separate records, joined by “and”; a condition that tells them apart may be missing. Equal values may be shown once.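 Compound exposure: 48 hours, 5 concentrations, 96-well plates. At the GI50, growth is halved. Definition used: TGI = concentration required for complete inhibition of growth.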

Tests used:
Assay in all cases: inhibition of tumour cell growth, NCI panel, 48 h
SK-OV-3 ovarian = tested on: SK-OV-3 ovarian
SNB-19 CNS = tested on: SNB-19 CNS
NCI-H226 lung = tested on: NCI-H226 lung
CCRF-CEM leukemia = tested on: CCRF-CEM leukemia
SF-539 CNS = tested on: SF-539 CNS
HOP-62 NSCLC = tested on: HOP-62 NSCLC
SF-295 CNS = tested on: SF-295 CNS
786-0 renal = tested on: 786-0 renal
SNB-75 CNS = tested on: SNB-75 CNS
MDA-MB-231 breast = tested on: MDA-MB-231 breast

Structure (SMILES) | TGI (SK-OV-3 ovarian) [µM] | TGI (SNB-19 CNS) [µM] | TGI (NCI-H226 lung) | TGI (CCRF-CEM leukemia) | TGI (SF-539 CNS) [µM] | TGI (HOP-62 NSCLC) | TGI (SF-295 CNS) [µM] | TGI (786-0 renal) [µM] | TGI (SNB-75 CNS) [µM] | GI50 (SK-OV-3 ovarian) [µM] | GI50 (NCI-H226 lung) [µM] | TGI (MDA-MB-231 breast) [µM] | GI50 (SF-539 CNS) [µM] | GI50 (HOP-62 NSCLC) [µM] | GI50 (SF-295 CNS) [µM] | GI50 (786-0 renal) [µM] | GI50 (SNB-75 CNS) [µM] | GI50 (SNB-19 CNS) [µM] | GI50 (CCRF-CEM leukemia) [µM] | GI50 (MDA-MB-231 breast) [µM]
COc1cc(/C=C/c2csnn2)cc(OC)c1OC | > 100 | > 100 | > 100 µM | > 100 µM | > 100 | > 100 µM | > 100 | > 100 | – | – | – | – | – | – | – | – | – | – | – | –
Cc1ccccc1C(CCCO)C(=O)O (stereo unspecified) | > 100 | > 100 | – | > 100 µM | > 100 | > 100 µM | > 100 | > 100 | > 100 | – | – | – | – | – | – | – | – | – | – | –
COc1ccc2nc(NC(=O)C(=O)CC(=O)c3ccc([N+](=O)[O-])cc3)sc2c1 | > 100 | > 100 | > 100 µM | > 100 µM | > 100 | > 100 µM | – | > 100 | > 100 | – | – | – | – | – | – | – | – | – | – | –
COC12C(COC(=O)NCCO)C3=C(C(=O)C(C)=C(N)C3=O)N1CC1NC12 (stereo unspecified) | > 264 | 169 | 71 µM and 150 µM | > 264 µM | 98.7 | 74.7 µM and 139 µM | > 264 | > 264 | – | 100 | 30.2 | > 264 | 13.9 | 28.4 | 24.3 | 41 | – | – | – | –
O=NN(CCCl)C(=O)NC1CCC(CC(=O)O)CC1 (stereo unspecified) | > 100 | > 100 | > 100 µM | > 100 µM and 62.2 µM | > 100 | > 100 µM | > 100 | > 100 | > 100 | – | – | – | – | – | – | – | – | – | – | –
NC1=NC(Cn2nc(-c3ccccc3)c3ccccc3c2=O)=NNC(=O)N1 | > 100 | > 100 | > 100 µM | > 100 µM | > 100 | > 100 µM | > 100 | > 100 | > 100 | – | – | – | – | – | – | – | – | – | – | –
O=[N+]([O-])c1ccc(-c2ccc(C3=Nn4c(CNc5ccccc5Cl)nnc4SC3)o2)cc1 | > 100 | > 100 | > 100 µM | – | > 100 | > 100 µM | > 100 | > 100 | > 100 | – | – | – | – | – | – | – | – | – | – | –
CC(=O)NC1C(O[C@H]2C[C@H]3[C@@H]4CC=C5C[C@@H](O)CC[C@]5(C)[C@H]4CC[C@]3(C)[C@H]2[C@H](C)C(=O)CCC(C)C)OCC(O)C1O (stereo partly specified) | 8.39 | 11 | – | 4.15 µM | 2.33 | 8.31 µM | 1.23 | 2.21 | 10.9 | 2.01 | – | 12.4 | 0.568 | 2.18 | 0.5 | 0.553 | 0.909 | 3.31 | 1.25 | 3.29
CCOC(=O)/C(=C/c1ccccn1)C(=O)c1ccccc1 | 36.7 | 31.8 | 31.8 µM | > 31 µM | 31 | 33 µM | 27.6 | 25.9 | 27.5 | – | – | – | – | – | – | – | – | – | – | –
O=C1CC(c2ccc(Cl)cc2)=Nc2ccccc2N1 | 97.3 | > 100 | > 100 µM | 41.9 µM | > 100 | > 100 µM | > 100 | > 100 | 50.2 | – | – | – | – | – | – | – | – | – | – | –
O=C1C2C3C=CC(C2C(=O)N1CO)C1C2C(=O)N(CO)C(=O)C2C31 (stereo unspecified) | > 100 | > 100 | > 100 µM | > 59.3 µM | > 100 | > 100 µM | > 100 | > 58.6 | > 100 | – | – | – | – | – | – | – | – | – | – | –
Cc1nc2ccccc2c(=O)n1/N=C(\N=Nc1ccccc1Cl)c1ccccc1Cl | 64.4 | – | – | > 100 µM | > 100 | > 100 µM | – | > 100 | – | – | – | – | – | – | – | – | – | – | – | –
CN1CCOC(C(NC(=O)c2ccccc2)c2ccccc2)C1=O (stereo unspecified) | > 100 | > 100 | > 100 µM | > 100 µM | > 100 | > 100 µM | > 100 | > 100 | > 100 | – | – | – | – | – | – | – | – | – | – | –
CC(=O)OCC(=O)[C@@]1(O)CC[C@H]2[C@@H]3C[C@H](C)C4=CC(=O)C=C[C@]4(C)[C@@]3(F)[C@@H](O)C[C@@]21C | > 100 | > 100 | > 100 µM | > 100 µM | > 100 | > 100 µM | > 100 | > 100 | > 100 | – | – | – | – | – | – | – | – | – | – | –
CC(=O)Nc1ccc(C2CC(c3ccc([N+](=O)[O-])cc3)=Nc3ccccc3S2=O)cc1 (stereo unspecified) | 70.5 | > 100 | 64.5 µM | 31.8 µM | 70.2 | 49.8 µM | 93.2 | 22.6 | > 100 | – | – | – | – | – | – | – | – | – | – | –
CC(=O)[CH-]C(=O)c1ccccc1.[C-]#[O+].[C-]#[O+].[Ir] | > 100 | > 100 | > 100 µM | – | > 100 | – | > 100 | > 100 | > 100 | > 100 | > 100 | – | > 100 | – | > 100 | > 100 | > 100 | > 100 | – | –
O=C(NCCc1ccccc1)C1C(=O)C(=O)N(CCc2ccccc2)C1=O (stereo unspecified) | > 100 | > 100 | > 100 µM | > 100 µM | > 100 | – | > 100 | > 100 | > 100 | – | – | – | – | – | – | – | – | – | – | –
O=C(c1ccccc1)[C@H]1Nc2ccc(Cl)cc2[C@H]2CCC[C@@H]12 | – | > 100 | 63.3 µM | – | > 100 | > 100 µM | > 100 | > 100 | > 100 | – | – | – | – | – | – | – | – | – | – | –
COc1ccccc1Oc1nccc(-c2c(-c3ccc(F)cc3)ncn2C2CCNCC2)n1 | > 25 | > 25 | – | – | > 25 | > 25 µM | > 25 | > 25 | > 25 | > 25 | – | > 25 | > 25 | > 25 | 17.5 | > 25 | > 16.6 | > 25 | – | 14.5
CCOC(=O)C1(C)CCC(C(C(=O)O)C(=O)O)CC1=O (stereo unspecified) | > 100 | > 100 | > 100 µM | > 100 µM | > 100 | > 100 µM | > 100 | > 100 | > 100 | – | – | – | – | – | – | – | – | – | – | –
